Experimental data reported in the Kinase Knowledgebase extract (Sharma et al. 2016).

Biological target: CDK2 (human) (UniProt P24941)
Experiment: Cell-Based Assay
Conditions: mda-mb-435

IC50 [µM]	SMILES
< 3.5	CCC(O)C#Cc1c([N+](=O)[O-])ccc2c1/C(=C/c1[nH]cnc1C)C(=O)N2 (configuration not stated)
< 3.5	CCOC(=O)C(CC#Cc1c(F)ccc2c1/C(=C/c1[nH]cnc1C)C(=O)N2)NC(C)=O (configuration not stated)
< 3.5	COC(=O)NCC#Cc1c(F)ccc2c1/C(=C/c1[nH]cnc1C)C(=O)N2
< 3.5	Cc1nc[nH]c1/C=C1\C(=O)Nc2ccc(F)c(C#CCC(C)O)c21 (configuration not stated)
< 3.5	CCC(O)C#Cc1c(F)ccc2c1/C(=C/c1[nH]cnc1C)C(=O)N2 (configuration not stated)

Same assay, conditions: sw480

IC50 [µM]	SMILES
< 1	CCC(O)C#Cc1c([N+](=O)[O-])ccc2c1/C(=C/c1[nH]cnc1C)C(=O)N2 (configuration not stated)
< 1	CCC(N)(C#Cc1c(F)ccc2c1/C(=C/c1[nH]cnc1C)C(=O)N2)CC
< 1	CNCC#Cc1c(F)ccc2c1/C(=C/c1[nH]cnc1C)C(=O)N2
< 1	CCC(O)C#Cc1c(F)ccc2c1/C(=C/c1[nH]cnc1C)C(=O)N2 (configuration not stated)

Biological target: CDK2 (UniProt P24941)
Experiment: Enzyme Assay
Conditions: not given

SMILES	IC50 [µM]
COc1cc[nH]c1/C=C1\C(=O)Nc2cccc(C#CCCCCO)c21	< 4
COc1cc[nH]c1/C=C1\C(=O)Nc2cccc(C#CC3(O)CCCCC3)c21	< 4
COc1cc[nH]c1/C=C1\C(=O)Nc2ccc(NC(=O)c3ccncc3)c(C#CCO)c21	< 4
COc1cc[nH]c1/C=C1\C(=O)Nc2cccc(C#CC(C)(C)O)c21	< 4
COC(=O)C(CC#Cc1cccc2c1/C(=C/c1[nH]ccc1OC)C(=O)N2)C(=O)OC	< 4
COc1cc[nH]c1/C=C1\C(=O)Nc2cccc(C#CC3(O)CCCC3)c21	< 4
COc1cc[nH]c1/C=C1\C(=O)Nc2cccc(C#CCCC(N)=O)c21	< 4
COc1cc[nH]c1/C=C1\C(=O)Nc2cccc(C#CCCCO)c21	< 4
COc1cc[nH]c1/C=C1\C(=O)Nc2cccc(C#CCN)c21	< 4
C#CCOCCO	< 4
COc1cc[nH]c1/C=C1\C(=O)Nc2ccc(NC(=O)Cc3cccs3)c(C#CCCC(=O)O)c21	< 4
COc1cc[nH]c1/C=C1\C(=O)Nc2cccc(C#CCNCc3ccccc3)c21	< 4
COc1cc[nH]c1/C=C1\C(=O)Nc2cccc(C#CCC(C(=O)O)C(=O)O)c21	< 4
COc1cc[nH]c1/C=C1\C(=O)Nc2cccc(C#CCCCC(N)=O)c21	< 4
COc1cc[nH]c1/C=C1\C(=O)Nc2cccc(C#CC(C)(O)CC(C)C)c21 (configuration not stated)	< 4
CNC(=O)OCC#Cc1cccc2c1/C(=C/c1[nH]ccc1OC)C(=O)N2	< 4
COC(=O)CCCC#Cc1cccc2c1/C(=C/c1[nH]ccc1OC)C(=O)N2	< 4
COc1cc[nH]c1/C=C1\C(=O)Nc2cccc(C#CCOC(N)=O)c21	< 4
COC(=O)CCC#Cc1cccc2c1/C(=C/c1[nH]ccc1OC)C(=O)N2	< 4
COC(=O)NCC#Cc1cccc2c1/C(=C/c1[nH]ccc1OC)C(=O)N2	< 4
COc1cc[nH]c1/C=C1\C(=O)Nc2cccc(C#CCCCC(=O)O)c21	< 4

Other lines, results leading:

IC50 [µM]	SMILES
< 4	CCC(O)C#Cc1c([N+](=O)[O-])ccc2c1/C(=C/c1[nH]cnc1C)C(=O)N2 (configuration not stated)
< 4	COc1cc[nH]c1/C=C1\C(=O)Nc2cccc(C#CCCO)c21
< 4	Cc1nc[nH]c1/C=C1\C(=O)Nc2ccc(F)c(C#CCN(C)C)c21
< 4	COC(=O)CCC#Cc1c(N)ccc2c1/C(=C/c1[nH]ccc1OC)C(=O)N2
< 4	Cc1nc[nH]c1/C=C1\C(=O)Nc2ccc(F)c(C#CCN3CCOCC3)c21
< 4	CCC(O)C#Cc1cccc2c1/C(=C/c1[nH]ccc1OC)C(=O)N2 (configuration not stated)
< 4	COc1cc[nH]c1/C=C1\C(=O)Nc2cccc(C#CCCC(=O)O)c21
< 4	CCOC(=O)C(CC#Cc1c(F)ccc2c1/C(=C/c1[nH]cnc1C)C(=O)N2)NC(C)=O (configuration not stated)
< 4	CNCC#Cc1cccc2c1/C(=C/c1[nH]ccc1OC)C(=O)N2
< 4	CCCCC[C@H](O)C#Cc1cccc2c1/C(=C/c1[nH]ccc1OC)C(=O)N2
< 4	CCCCCC(O)C#Cc1cccc2c1/C(=C/c1[nH]ccc1OC)C(=O)N2 (configuration not stated)
< 4	COCC#Cc1cccc2c1/C(=C/c1[nH]ccc1OC)C(=O)N2
< 4	COc1cc[nH]c1/C=C1\C(=O)Nc2cccc(C#CCO)c21
< 4	Cc1nc[nH]c1/C=C1\C(=O)Nc2ccc(F)c(C#CCO)c21
< 4	Cc1nc[nH]c1/C=C1\C(=O)Nc2ccc(F)c(C#CC(C)(C)N)c21
< 4	Cc1nc[nH]c1/C=C1\C(=O)Nc2ccc(F)c(C#CCC(C)O)c21 (configuration not stated)
< 4	Cc1nc[nH]c1/C=C1\C(=O)Nc2ccc(F)c(C#CCNC(N)=O)c21
< 4	COc1cc[nH]c1/C=C1\C(=O)Nc2ccc(N)c(C#CCO)c21
< 4	CNCC#Cc1c(F)ccc2c1/C(=C/c1[nH]cnc1C)C(=O)N2
< 4	CCC(C)(O)C#Cc1cccc2c1/C(=C/c1[nH]ccc1OC)C(=O)N2 (configuration not stated)
< 4	CCC(O)C#Cc1c(F)ccc2c1/C(=C/c1[nH]cnc1C)C(=O)N2 (configuration not stated)
< 4	CCCC(C)(O)C#Cc1cccc2c1/C(=C/c1[nH]ccc1OC)C(=O)N2 (configuration not stated)
< 4	Cc1nc[nH]c1/C=C1\C(=O)Nc2ccc(F)c(C#CCOC(N)=O)c21
< 4	CCN(CC)CC#Cc1c(F)ccc2c1/C(=C/c1[nH]cnc1C)C(=O)N2

Same assay, conditions: concentration not given here

inhibition [%]	SMILES
> 60	COC(=O)CCC#Cc1c([N+](=O)[O-])ccc2c1/C(=C/c1[nH]ccc1OC)C(=O)N2
> 90	COc1cc[nH]c1/C=C1\C(=O)Nc2ccc([N+](=O)[O-])c(C#CCO)c21
> 90	COC(=O)NCC#Cc1c(F)ccc2c1/C(=C/c1[nH]cnc1C)C(=O)N2
